Reference: patent publication US8691864B2, “Agents useful for reducing amyloid precursor protein and treating dementia and methods of use thereof” (priority 2000, dated 2014)

Tested on: APP-mRNA 5′UTR
Test: CAT reporter assay with βAPP-mRNA 5′UTR in transfected U373 MG cells
Assay type: cell-based
Description: One day prior to transfection, U373 cells were plated onto 100 mm dishes at a density of 3×10^5 cells. On the day of transfection, the cells were given 5 ml of fresh media containing 10% FBS, 2 mM glutamine in DMEM. The cells were transfected using a calcium phosphate precipitation method, as per the manufacturer's protocol and described previously (Rogers et al., 1999). Briefly, for each plate, three μg of DNA (5′UTR APP-PSV2-CAT or PSV2-CAT vector) were placed in a final volume of […] of 250 mM CaCl2. The chloramphenicol acetyl transferase (CAT) gene was used as a reporter gene. The DNA solution was slowly pipetted into an aerated, equivalent volume of 2×HeBS, pH 7.05. The resulting precipitate was allowed to stand 10-20 min at RT before its addition to the cells. After 18 h, the medium was changed and the transfected cells were left for two days before drug treatment.
The cell lysates from transfected U373 cells treated with phenserine were analyzed for their CAT activity using a colorimetric enzyme immunoassay (Boehringer Mannheim, Indianapolis, Ind.). Briefly, 50 μg of protein (an amount previously found to lie within the linear range of the assay) were placed onto anti-CAT coated microtiter plate modules and allowed to bind for 1 h at 37° C. The plates were washed thoroughly after each step. Next, a digoxigenin-labeled anti-CAT antibody was added to the samples and incubated for 1 h at 37° C. A subsequent antibody, anti-digoxigenin conjugated to peroxidase, was placed in the wells for another hour under similar conditions. Finally peroxidase substrate, ABTS, was added to each well and the absorbance of each sample was measured at a wavelength of 405 nm.
The plasmid PSV2-APP-CatD was provided by Dr. Rogers (1999). […]
Quantitation of the fold stimulus of CAT gene activity conferred by the 5′ UTR βAPP-mRNA was measured. ELISA readings of CAT expression were measured at 405 nm. […] In other assays where the time of treatment was extended to 48 hours, only a 2-fold decrease in CAT reporter mRNA was detected with phenserine treatment.

## CN1CC[C@@]2(C)c3cc(OC(=O)Nc4ccccc4)ccc3N(C)[C@@H]12 [(−)-phenserine]
Control vector, all time points
  CAT activity in pSV2 CAT (parental vector) transfected cells: no inhibition
pSV2 (APP) CAT transfected U373, 50 μM, 1 hour
  decrease of CAT gene activity conferred by the 5′ UTR βAPP-mRNA: 4 fold
pSV2 (APP) CAT transfected U373, treatment extended to 48 hours
  decrease in CAT activity: 2 fold
